{
  "source": "paper PMC6562610",
  "about": "“Inhibition of Hedgehog Signaling in Fibroblasts, Pancreatic, and Lung Tumor Cells by Oxy186, an Oxysterol Analogue with Drug-Like Properties” (Cells, 2019)",
  "key": {"[1]": {"system": "Gli1 expression in A549 cells", "experiment": "Inhibition of Gli1 expression in A549 cells, Q-RT-PCR", "assay_type": "cell-based, human", "details": "10 µM, 72 h", "from_the_text": "NIH3T3-E1 fibroblasts were obtained from ATCC (Manassas, VA) and cultured, as previously described. CAPAN-1 and PANC-1 human pancreatic cancer cells were obtained from ATCC and cultured in Dulbecco’s Modified Eagle Medium (DMEM) containing 10% heat-inactivated fetal bovine serum (FBS) (Hyclone Laboratories, Logan, UT, USA) and antibiotics, as previously described. The human lung cancer cell lines A549 and H2030 were obtained from ATCC and cultured in RPMI-1640 containing 10% FBS. The human hepatoma cell line HepG2 was obtained from ATCC and cultured in DMEM containing 10% FBS. Mouse embryonic fibroblasts (MEFs) from suppressor of fused (Sufu) null mice (Sufu^−/−) were provided by Dr. Philip Beachy of Stanford University and cultured in DMEM containing 10% FBS. Gant61, SB431542 and vismodegib (GDC0449) were obtained from Cayman Chemical, HPI-1 was obtained from Abcam. For experiments, cells were treated in a medium containing 5% FBS.\nTotal RNA was extracted with the RNeasy Plus Mini Kit from Qiagen, according to the manufacturer’s instructions. One microgram of RNA was reverse-transcribed using an iScript Reverse Transcription Supermix from Bio-Rad, to make single-stranded cDNA. The cDNAs were then mixed with Qi SYBR Green Supermix (Bio-Rad, Hercules, CA, USA) for quantitative RT-PCR assay using a Bio-Rad I-cycler IQ quantitative thermocycler. All PCR samples were prepared in triplicate wells in a 96-well plate. […] Fold changes in gene expression were calculated using the ΔΔCt method. […]\nFigure 4 Inhibition of Gli and Shh expression in (a) PDAC (PANC-1) and (b,c) human lung cancer cells (A549 and H2030, respectively) by Oxy186. Cells were treated with the compounds as indicated in DMEM or RPMI 1640 containing 5% FBS for (a) 48 or (b,c) 72 hours, then RNA was extracted and analyzed by Q-RT-PCR for the expression of Gli1 and normalized to GAPDH expression. (d) CAPAN-1 cells were treated with the compounds, as indicated, in DMEM containing 5% FBS for 72 h, then RNA was extracted and analyzed by Q-RT-PCR for the expression of Shh and normalized to GAPDH expression. […]"}, "[2]": {"system": "Hh target gene Ptch1 expression in NIH3T3-E1 cells", "experiment": "Inhibition of CAPAN-1 conditioned medium-induced Ptch1 mRNA expression, Q-RT-PCR", "assay_type": "cell-based, mouse", "details": "CAPAN-1 CM, 72 h", "from_the_text": "NIH3T3-E1 fibroblasts were obtained from ATCC (Manassas, VA) and cultured, as previously described. CAPAN-1 and PANC-1 human pancreatic cancer cells were obtained from ATCC and cultured in Dulbecco’s Modified Eagle Medium (DMEM) containing 10% heat-inactivated fetal bovine serum (FBS) (Hyclone Laboratories, Logan, UT, USA) and antibiotics, as previously described. The human lung cancer cell lines A549 and H2030 were obtained from ATCC and cultured in RPMI-1640 containing 10% FBS. The human hepatoma cell line HepG2 was obtained from ATCC and cultured in DMEM containing 10% FBS. […]\nTotal RNA was extracted with the RNeasy Plus Mini Kit from Qiagen, according to the manufacturer’s instructions. […] The cDNAs were then mixed with Qi SYBR Green Supermix (Bio-Rad, Hercules, CA, USA) for quantitative RT-PCR assay using a Bio-Rad I-cycler IQ quantitative thermocycler. […] Fold changes in gene expression were calculated using the ΔΔCt method. […]\nFigure 3 Inhibition of ligand-induced Hedgehog signaling. […] After 72 h, RNA was extracted and analyzed by Q-RT-PCR for the expression of Hh target genes Gli1 (a,b,d) and Ptch1 (c), and normalized to Oaz1 expression. […] Luciferase activity was measured and normalized to the Renilla luciferase activity. […]"}, "[3]": {"experiment": "Pharmacokinetic study in mice, single oral dose", "assay_type": "in vivo, balb/c mice", "details": "for Cmax: read-out: maximum serum concentration (Cmax)", "protocol": "In an initial assessment of the drug-like properties of Oxy186, we performed a pharmacokinetic (PK) study in mice. Oxy186, formulated in 4% ethanol, 15% DMSO, and 81% corn oil, was administered to balb/c mice by oral gavage as a single dose of 50 mg/kg.\nFigure 8 Drug-like properties of Oxy186. (a) A single dose of Oxy186 at 50 mg/kg, formulated in 4% ethanol/ 15% DMSO/ 81% corn oil, was administered to balb/c mice by oral gavage. Plasma samples were taken at 10 min, 30 min, 1, 2, 4, 6, 8, and 24 h, followed by LC/MS analysis of the plasma. (b) Evolution of Oxy186 from parent compound Oxy16 and their drug-like properties."}, "LXR target gene Abca1": {"system": "LXR target gene Abca1", "experiment": "Induction of LXR target gene Abca1 in NIH3T3 cells, Q-RT-PCR", "assay_type": "cell-based, mouse", "protocol": "Total RNA was extracted with the RNeasy Plus Mini Kit from Qiagen, according to the manufacturer’s instructions. One microgram of RNA was reverse-transcribed using an iScript Reverse Transcription Supermix from Bio-Rad, to make single-stranded cDNA. The cDNAs were then mixed with Qi SYBR Green Supermix (Bio-Rad, Hercules, CA, USA) for quantitative RT-PCR assay using a Bio-Rad I-cycler IQ quantitative thermocycler. All PCR samples were prepared in triplicate wells in a 96-well plate. After 40 cycles of PCR, melt curves were examined in order to ensure primer specificity. Fold changes in gene expression were calculated using the ΔΔCt method. Primers used for mouse were as follows: Oaz1 (5’-CCACTGCTTCGCCAGAGAG-3’) and (5’-CCCGGACCCAGGTTACTA-3’), Gli1 (5’-[…]-3’ and 5’-[…]-3’), Ptch1 (5’-CCATCGGCGACAAGAACC-3’ and 5’-[…]-3’), Hip (5’-[…]-3’ and 5’-[…]-3’), and Abca1 (5’-[…]-3’ and 5’-[…]-3’). Primers used for human were as follows: SREBP1c (5’-CGCTCCTCCATCAATGACA-3’ and 5’-[…]-3’), GAPDH (5’-[…]-3’ and 5’-[…]-3’), SHH (5’-CGGAGCGAGGAAGGGAAAG-3’) and (5’-[…]-3’), and GLI1 (5’-GAAGCCGAGCCGAGTATC-3’ and 5’-[…]-3’).\nFigure 7 Induction of LXR target gene expression by Oxy186 and LXR agonist TO901317 (TO). (a) NIH3T3 cells and (b) HepG2 cells were treated with DMEM containing 5% FBS in the presence or absence of TO (2 µM) or Oxy186 (10 µM). […] Data from a representative experiment are reported as the mean of triplicate determinations ± SD (** p < 0.01 vs. control)."}, "[4]": {"details": "Figure 8b drug-like properties summary"}, "[5]": {"details": "mouse, plasma, balb/c mice, 50 mg/kg, oral gavage, single dose"}},
  "note": "Entries after “also recorded” stand apart in the source; their conditions may differ. Read-outs that look alike come from different tables or passages of the source.",
  "data": [
    {"smiles": "C[C@]12CC[C@H](O)C[C@@H]1CC[C@@H]1[C@@H]2CC[C@@]2(C)[C@H]1CC[C@@H]2[C@](C)(O)CCc1ccc(F)cc1", "note": "[Oxy186, (3S,5S,8R,9S,10S,13S,14S,17S)-17-((R)-4-(4-fluorophenyl)-2-hydroxybutan-2-yl)-10,13-dimethylhexadecahydro-1H-cyclopenta[a]phenanthren-3-ol]", "values": [
      {"measurement": "Inhibition of expression of Gli1", "setting": "[1]", "result": "significantly inhibited"},
      {"measurement": "Inhibition of ligand-induced Ptch1 mRNA expression", "setting": "[2]", "result": "robustly inhibited"},
      {"measurement": "In vivo availability / stability (Figure 8b summary)", "setting": "[3]; [4]", "result": "Orally available in mice"},
      {"measurement": "Tolerability", "setting": "[3]; balb/c mice, 50 mg/kg, oral gavage, single dose", "result": "well tolerated; also recorded: no overt signs of toxicity"},
      {"measurement": "Tmax", "setting": "[3]; [5]", "result": 2, "unit": "h"},
      {"measurement": "AUC", "setting": "[3]; mouse, plasma, balb/c mice, 50 mg/kg, oral gavage, single dose, read-out: area under the curve (AUC)", "result": 10500, "unit": "ng·h/mL"},
      {"measurement": "Cmax", "setting": "[3]; [5]", "result": 1490, "unit": "ng/mL"},
      {"measurement": "half-life", "setting": "[3]; mouse, plasma, balb/c mice, 50 mg/kg, oral gavage, single dose, read-out: oral half-life (T1/2) (converted)", "result": 4.5, "unit": "h"},
      {"measurement": "AUC", "setting": "[3]; mouse, plasma, balb/c mice, 50 mg/kg, oral gavage, converted from ng/mL, read-out: area under the curve (AUC), molar", "result": 23.7, "unit": "µM·h"},
      {"measurement": "Cmax", "setting": "[3]; mouse, plasma, balb/c mice, 50 mg/kg, oral gavage, converted with MW = 442.32", "result": 3.4, "unit": "µM"},
      {"measurement": "LXR agonism (Figure 8b summary)", "setting": "LXR target gene Abca1; [4]", "result": "Weak LXR agonist"},
      {"measurement": "Induction of expression of LXR target gene Abca1", "setting": "LXR target gene Abca1; NIH3T3-E1 cells, up to 10 µM", "result": "only modestly induced"}
    ]}
  ]
}
